Patent publication US6017958A, “Method of treating malignant tumors with thyroxine analogues having no significant hormonal activity” (Octamer, Inc., priority 1997, dated 2000)
Read-outs that look alike come from different tables or passages of the source.

Experiments:
[1] = system: MDA-MB-231 cells; assay: Colony formation / cell killing; format: cell-based, human
Procedure: Assays for Quantitation of colony formation were performed as reported, Vidair, et al., 1986 "Evaluation of a Role for Intracellular Na^+, K^+, Ca2^+ and Mg^2+ in hyperthermic cell killing" Radiation Res. 105:187-200.

[2] = system: HeLa (cervical cancer); assay: Cytocidal action/growth inhibition, HeLa; format: cell-based; conditions: Homo sapiens, 72 h
Procedure: Seven human cancer cell lines were obtained from the American Tissue Culture Collection (Rockville, Md.) and maintained in the recommended growth media. Cells were seeded into wells (2 cm^2) at a density of 2×10^4 cells/cm^2. Various concentrations of Compounds 1-13 were added to the media at the time of seeding.
The cultures were incubated for 72 hours at 37° C. (5% CO2 atmosphere). Following incubation, cells were detached with trypsin and counted in a hemocytometer.
I100 designates the concentration at which no viable cells remained; I50 the concentration at which 50% viable cells remained, as compared to a control.
E-ras 20 cells were cultured as reported, Bauer et al., 1996, "Modification of growth related enzymatic pathways and apparent loss of tumorigenicity of a ras-transformed bovine endothelial cell line by treatment with 5-iodo-6-amino-1,2-benzopyrone (INH2 BP)" Intl. J. Oncol. 8:239-252; HT-144 (melanoma), DU-145 (prostatic cancer), HeLa (cervical cancer), HL 60 (promyelocytic leukemia), MDA-MB-231 (mammary cancer), SK-Br-3 (mammary cancer), T47D (ductal mammary cancer), A559 (lung cancer) were obtained from American Type Culture Collection (Rockville, Md.) and cultured in prescribed media. The effect of DIME was tested in cultures with a starting cell density of 2×10^4 cells per cm^2 and comparison of the effect of DIME on cell growth (intact cells identified by Trypan blue exclusion) was assayed by direct cell counting after trypsinization in a hemocytometer 72 hours after drug addition.
For DIME-exposure experiments cells were seeded into 2 cm^2 wells at a density of 2×10^4 cells/cm^2. DIME at various concentrations was added to the medium at the time of seeding. The cell cultures were then incubated for 3 days (37° C. in 5% at CO2 atmosphere).

[3] = system: A-549 cells; assay: DIME action on A-549 cells with esterase inhibitor BNPP; format: cell-based, human; conditions: with bis[p-nitrophenyl] phosphate
[4] = system: protein phosphatase 2A (E-ras 20 cell nuclear extract); assay: Phosphatase activity, E-ras 20 cell nuclear extract; format: cell-based, bovine
Procedure: Compounds 1-13 were tested for protein phosphatase 2A activation in malignant tumor cell cultures in vitro according to the protocol described in Bauer et al., 1996, "Modification of Growth Related Enzymatic Pathways and Apparent Loss of Tumorigenicity of a Ras-Transformed Bovine Endothelial Cell Line by Treatment with 5-Iodo-6-Amino-1,2-Benzopyrone (INH2 BP)," International J. of Oncology 8:239-252. All other compounds were ineffective.

[5] = system: biosynthetic pathways of DNA, RNA or proteins; assay: Metabolic action and biosynthetic pathways
[6] = system: E-ras 20 cells; assay: cells; format: in vitro ADME, bovine; conditions: Bos taurus, 24 hours, read-out: Extracellular DIME (concentration that causes 100% growth inhibition)
Procedure: Monolayer cultures in 9.6 cm^2 wells (3 ml medium) were exposed to [^14 C]-DIME (10.55 mCi/mmol) for 24 hours, then washed 7 times with 1 ml medium containing unlabeled DIME. The cells were dissolved in 1 ml of 4% Na2 CO3 and 0.2 M NaOH and radioactivity measured by scintillation counting. Cell volume was determined by hematocrit and cell counting from parallel wells treated with unlabeled DIME.
A striking property of DIME is its apparent selectivity for tumors in vivo. We performed drug metabolism and cellular DIME uptake tests to further characterize this property. Incubation of cells in culture with [^14 DIME, under conditions described previously, Bauer et al., 1996, "Modification of growth related enzymatic pathways and apparent loss of tumorigenicity of a ras-transformed bovine endothelial cell line by treatment with 5-iodo-6-amino-1,2-benzopyrone (INH2 BP)" Intl. J. Oncol. […] As shown in Table 9 the tumorigenic transformed cells in general took up DIME more rapidly than nontransformed cells (CV-1) or cells that were less sensitive to killing-by DIME (e.g. E-ras 20). […] On the other hand homogenates of organs of normal mice actively metabolize (de-esterify) DIME as illustrated in Table 10.

[7] = system: MDA-MB-231 cells; assay: Time-lapse videomicroscopy of mitosis; format: cell-based, human
Procedure: Cells in sealed T-25 tissue culture flasks were placed into a temperature-controlled incubation chamber built to enclose an inverted phase-contrast microscope. The chamber was shielded from ambient room light. Every 5 min, the microscope light was switched on for 12s, during which time an image was captured by an imaging system obtained from Compix, Inc. (Mars, Pa., USA). Image sequences were analyzed with software from the same company.
^a Mitoses were monitored by timelapse videomicroscopy during
continuous exposure of cells to DIME;
^b Fusion of daughter cells usually occurred within minutes of
cytokinesis and involved 2-5 daughter cells.

[8] = system: noncancer cells; assay: Replication of noncancer cells in culture; format: cell-based; conditions: cells growing in cultures; not shown

COC(=O)c1cc(I)c(Oc2ccc(OC)cc2)c(I)c1 [Compound 1, Methyl 3,5-diiodo-4-(4'-methoxyphenoxy)benzoate]
colony forming ability ([1]; 1-2 μM, 10 days): profoundly diminished
cell killing after drug removal ([1]; DIME removed prior to end of 8 hours incubation): cell killing was prevented and drug-induced morphologic changes were completely reversed
IC50 ([2]; Table 4, read-out: I50): 600 nM
IC100 ([2]; Table 4, read-out: I100 (no viable cells remained)): 3.5 µM
IC50 ([2]; day 3, Table 11, read-out: I50 (day 3)): 600 nM
cell killing with esterase inhibition [3]: much more effective cell killing
Phosphatase Activity ([4]; 50 μM DIME, untreated 29 ± 5): 44 ± 7 fmol Pi/mg protein × min.
activation of protein phosphatase 2A, fold ([4]; 50 μM, E-ras transformed cells): at least two-fold
inhibition of biosynthetic pathways of DNA, RNA or proteins [5]: nor does it inhibit the biosynthetic pathways of DNA, RNA or proteins
metabolic action [5]: no metabolic action
IC100 [6]: 10 µM
increase of average time spent in mitosis ([7]; 1 μM): more than 20 fold
mitoses yielding daughter cells which fused (share) ([7]; 1 μM): Twenty percent
rate of entry into mitosis / traversal of interphase ([7]; 1 μM): did not affect the rate at which the cells traversed interphase
No. of mitosis followed by fusion of daughter cells ([7]; 1.0 μM, 35 mitoses monitored, control 0 of 32): 7
delay in mitosis ([7]; 1 μM, control approximately 0.5 hr): 13 h
daughter cells in irregular division (FIG. 12) ([7]; 1 μM, control exactly 2): 6 daughter cells
inhibition of replication of noncancer cells [8]: inhibited to varying degrees
